Columns and labels:
[1] = molecular target: Delta-type opioid receptor (Rattus norvegicus, UniProt P33533); assay: Displacement of [3H]deltorphin-II from delta opioid receptor in rat brain synaptosomal membranes; type: cell membranes, Sprague-Dawley, Membrane
[2] = molecular target: Mu-type opioid receptor (Rattus norvegicus, UniProt P33535); assay: Displacement of [3H]DAMGO from mu opioid receptor expressed in rat brain synaptosomal membranes; type: cell membranes, Sprague-Dawley, Membrane
[3] = molecular target: T1, Delta-type opioid receptor (Mus musculus, UniProt P32300); assay: Agonistic activity at delta opioid receptor in mouse vas deferens; type: functional, tissue-based
[4] = molecular target: T1, Delta-type opioid receptor; assay: Displacement of deltorphin-II from delta opioid receptor in mouse vas deferens; conditions: read-out: pA2 (converted)
[5] = molecular target: T2, Mu-type opioid receptor (Cavia porcellus, UniProt P97266); assay: Agonistic activity at mu opioid receptor in myenteric plexus longitudinal muscle of guinea pig ileum; type: functional, tissue-based, Hartley
[6] = molecular target: T2, Mu-type opioid receptor; assay: Displacement of endomorphin-2 from mu opioid receptor in guinea pig ileum; type: tissue-based, Hartley; conditions: read-out: pA2 (converted)
[7] = molecular target: Mu-type opioid receptor (Cavia porcellus) (UniProt P97266); assay: Maximal inhibition of muscle contraction in guinea pig ileum at 10000 nM; type: functional, tissue-based; parameters: scale not given: the % may be the effect or the level left
[8] = molecular target: Opioid receptors; mu & delta (Rattus norvegicus) (UniProt P33533+P33535); assay: Selectivity ratio of rat mu opioid receptor over rat delta opioid receptor; type: protein assay
[9] = molecular target: Delta-type opioid receptor (Mus musculus) (UniProt P32300); assay: Maximal inhibition of muscle contraction in mouse vas deferens at 10000 nM; type: functional, tissue-based; parameters: scale not given: the % may be the effect or the level left; conditions: Muscle tissue
Chain of Delta-type opioid receptor (Mus musculus) (P32300 whole entry): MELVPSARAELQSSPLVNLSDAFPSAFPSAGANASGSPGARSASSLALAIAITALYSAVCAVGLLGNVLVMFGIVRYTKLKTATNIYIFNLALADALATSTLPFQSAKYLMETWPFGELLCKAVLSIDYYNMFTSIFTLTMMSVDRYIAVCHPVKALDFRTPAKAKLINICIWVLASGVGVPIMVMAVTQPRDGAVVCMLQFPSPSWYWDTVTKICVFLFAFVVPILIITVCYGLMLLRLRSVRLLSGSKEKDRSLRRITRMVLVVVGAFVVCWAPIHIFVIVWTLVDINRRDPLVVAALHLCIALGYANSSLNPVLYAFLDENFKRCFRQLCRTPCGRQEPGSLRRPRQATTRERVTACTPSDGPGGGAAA

T2 sequence (P97266 whole entry): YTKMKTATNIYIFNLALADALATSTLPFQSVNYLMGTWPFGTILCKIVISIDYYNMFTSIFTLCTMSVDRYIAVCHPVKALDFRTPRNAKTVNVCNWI
Chain of Mu-type opioid receptor (Cavia porcellus) (P97266 whole entry): as above
Chain of Mu-type opioid receptor (Rattus norvegicus, UniProt P33535) (P33535 whole entry): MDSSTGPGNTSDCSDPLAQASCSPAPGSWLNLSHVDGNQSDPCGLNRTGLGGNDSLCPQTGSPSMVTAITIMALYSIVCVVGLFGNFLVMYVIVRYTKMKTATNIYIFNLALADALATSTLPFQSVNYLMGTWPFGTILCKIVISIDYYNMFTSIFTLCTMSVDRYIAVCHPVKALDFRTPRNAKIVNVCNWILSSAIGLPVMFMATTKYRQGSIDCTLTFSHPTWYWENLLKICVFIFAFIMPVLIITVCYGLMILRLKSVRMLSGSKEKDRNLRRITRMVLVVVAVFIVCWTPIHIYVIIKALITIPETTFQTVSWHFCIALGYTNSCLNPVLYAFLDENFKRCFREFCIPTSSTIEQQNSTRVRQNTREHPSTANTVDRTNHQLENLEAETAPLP
T1 sequence (P32300 whole entry): as the sequence (P32300 whole entry) above
Chain of Delta-type opioid receptor (Rattus norvegicus, UniProt P33533) (P33533 whole entry): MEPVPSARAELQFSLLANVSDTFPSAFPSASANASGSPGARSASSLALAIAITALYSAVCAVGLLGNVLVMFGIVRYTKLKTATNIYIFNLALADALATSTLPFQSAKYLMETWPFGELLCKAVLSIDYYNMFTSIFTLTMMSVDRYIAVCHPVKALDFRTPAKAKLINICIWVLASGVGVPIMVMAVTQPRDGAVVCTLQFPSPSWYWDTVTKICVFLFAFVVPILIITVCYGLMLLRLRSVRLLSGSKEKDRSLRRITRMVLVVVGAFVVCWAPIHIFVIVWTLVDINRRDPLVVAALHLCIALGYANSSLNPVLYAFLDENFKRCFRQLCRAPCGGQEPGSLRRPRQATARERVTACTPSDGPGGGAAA
Chain of Opioid receptors; mu & delta (Rattus norvegicus) (P33533 whole entry, looked up): as the sequence (P33533 whole entry) above
Chain of Opioid receptors; mu & delta (Rattus norvegicus) (P33535 whole entry, looked up): as the sequence (P33535 whole entry) above

Compound | Ki [1] [nM] | Ki [2] [nM] | IC50 [3] [nM] | Kb [4] [nM] | IC50 [5] [nM] | Kb [6] [nM] | Activity [7] [%] | Ratio Ki [8] | Activity [9] [%]
Cc1cc(O)cc(C)c1C[C@H](N)C(=O)N1Cc2ccccc2CC1C(=O)NCCCCc1[nH]c(=O)c(CCCNC(=O)C2Cc3ccccc3CN2C(=O)[C@@H](N)Cc2c(C)cc(O)cc2C)nc1C (stereo partly specified) | 0.16 | 1.56 | > 10000 | 0.0251 | > 10000 |  |  |  | 
Cc1cc(O)cc(C)c1C[C@@H](C(=O)N1Cc2ccccc2CC1C(=O)NCCCc1nc(O)c(CCCNC(=O)C2Cc3ccccc3CN2C(=O)[C@H](Cc2c(C)cc(O)cc2C)N(C)C)nc1C)N(C)C (stereo partly specified) | 0.287 | 1.68 | > 10000 | 0.038 | > 10000 | 19.5 | < 1 | 6 | < 1
Cc1cc(O)cc(C)c1C[C@H](N)C(=O)N1Cc2ccccc2CC1C(=O)NCCCCCCCCCCNC(=O)C1Cc2ccccc2CN1C(=O)[C@@H](N)Cc1c(C)cc(O)cc1C (stereo partly specified) | 1.53 | 4.86 | > 10000 | 0.0107 | 5420 |  |  | 3 | < 28
Cc1cc(O)cc(C)c1C[C@H](N)C(=O)N1Cc2ccccc2CC1C(=O)NCCCCc1nc(C)c(CCCNC(=O)C2Cc3ccccc3CN2C(=O)[C@@H](N)Cc2c(C)cc(O)cc2C)nc1O (stereo partly specified) | 0.092 | 2.28 | > 10000 | 0.0339 | > 10000 | 112 | < 9 | 25 | 22
Cc1cc(O)cc(C)c1C[C@H](N)C(=O)N1Cc2ccccc2CC1C(=O)NCCc1nc(O)c(CCNC(=O)C2Cc3ccccc3CN2C(=O)[C@@H](N)Cc2c(C)cc(O)cc2C)nc1C (stereo partly specified) | 0.095 | 2.83 | > 10000 | 0.0186 | > 10000 | 166 | < 27 | 30 | < 1
Cc1cc(O)cc(C)c1C[C@H](N)C(=O)N1Cc2ccccc2CC1C(=O)NCCCCc1nc(O)c(CCNC(=O)C2Cc3ccccc3CN2C(=O)[C@@H](N)Cc2c(C)cc(O)cc2C)nc1C (stereo partly specified) | 0.107 | 1.37 | > 10000 | 0.0102 | > 10000 |  | < 44 | 13 | < 1
Cc1cc(O)cc(C)c1C[C@H](N)C(=O)N1Cc2ccccc2CC1C(=O)NCCCCCCNC(=O)C1Cc2ccccc2CN1C(=O)[C@@H](N)Cc1c(C)cc(O)cc1C (stereo partly specified) | 0.129 | 1.79 | > 10000 | 0.024 |  |  |  |  | < 1
Cc1cc(O)cc(C)c1C[C@H](N)C(=O)N1Cc2ccccc2CC1C(=O)NCc1nc(O)c(CNC(=O)C2Cc3ccccc3CN2C(=O)[C@@H](N)Cc2c(C)cc(O)cc2C)nc1C (stereo partly specified) | 0.163 | 3.76 | > 10000 | 0.00603 | > 10000 |  | < 15 | 23 | < 1
Cc1cc(O)cc(C)c1C[C@H](N)C(=O)N1Cc2ccccc2CC1C(=O)NCCCCc1nc(O)c(CCCNC(=O)C2Cc3ccccc3CN2C(=O)[C@@H](N)Cc2c(C)cc(O)cc2C)nc1C (stereo partly specified) |  |  |  |  |  |  | < 1 | 10 | < 10
Cc1cc(O)cc(C)c1C[C@H](N)C(=O)N1Cc2ccccc2CC1C(=O)NCCCCNC(=O)C1Cc2ccccc2CN1C(=O)[C@@H](N)Cc1c(C)cc(O)cc1C (stereo partly specified) | 0.124 | 5.72 | > 10000 | 0.0309 | > 10000 | 102 | < 16 | 46 | < 1
Cc1cc(O)cc(C)c1C[C@H](N)C(=O)N1Cc2ccccc2CC1C(=O)NCCCCc1nc(O)c(CCCCNC(=O)C2Cc3ccccc3CN2C(=O)[C@@H](N)Cc2c(C)cc(O)cc2C)nc1C (stereo partly specified) | 0.323 | 1.74 | > 10000 | 0.00871 | > 10000 |  | < 34 | 5 | < 1
Cc1cc(O)cc(C)c1C[C@H](N)C(=O)N1Cc2ccccc2CC1C(=O)NCCCc1nc(O)c(CCCNC(=O)C2Cc3ccccc3CN2C(=O)[C@@H](N)Cc2c(C)cc(O)cc2C)nc1C (stereo partly specified) | 0.155 | 3.08 | > 10000 | 0.0275 | 7020 |  |  | 20 | < 1
Cc1cc(O)cc(C)c1C[C@@H](C(=O)N1Cc2ccccc2CC1C(=O)NCCCCCCNC(=O)C1Cc2ccccc2CN1C(=O)[C@H](Cc1c(C)cc(O)cc1C)N(C)C)N(C)C (stereo partly specified) | 0.06 | 2.21 | > 10000 | 0.00525 | > 10000 | 4.57 | < 1 | 37 | < 1
